Test system: MV-4-11 cells
Test: Gene expression microarray analysis (Affymetrix PrimeView) and GSEA
Type: cell-based, human
Design: RFU PODN (11730768_x_at) / Fold change /veh PODN (11730768_x_at) / RFU LINC00158 (11744669_a_at) / Fold change /veh LINC00158 (11744669_a_at) / RFU DUSP10 (11751237_a_at) / Fold change /veh DUSP10 (11751237_a_at) / RFU ID3 (11757404_x_at) / Fold change /veh ID3 (11757404_x_at) / RFU PLEKHG5 (11737974_s_at) / Fold change /veh PLEKHG5 (11737974_s_at) / RFU LRRC4B (11730491_at) / Fold change /veh LRRC4B (11730491_at) / RFU GIMAP4 (11747438_a_at) / Fold change /veh GIMAP4 (11747438_a_at) / RFU KRT8 (11758183_x_at) / Fold change /veh KRT8 (11758183_x_at) / RFU CNN1 (11734310_a_at) / Fold change /veh CNN1 (11734310_a_at) / RFU VPS37D (11726825_at) / Fold change /veh VPS37D (11726825_at) / RFU C10orf10 (11716522_x_at) / Fold change /veh C10orf10 (11716522_x_at) / RFU KIR2DL2 /// KIR2DL4 /// KIR2DL5A /// KIR2DL5B /// KIR2DS1 /// KIR2DS2 /// KIR2DS3 /// KIR2DS4 /// KIR3DL3 /// KIR3DL3 /// KIR3DS1 (11738374_at) / Fold change /veh KIR2DL2 /// KIR2DL4 /// KIR2DL5A /// KIR2DL5B /// KIR2DS1 /// KIR2DS2 /// KIR2DS3 /// KIR2DS4 /// KIR3DL3 /// KIR3DL3 /// KIR3DS1 (11738374_at) / RFU C1QL1 (11718748_at) / Fold change /veh C1QL1 (11718748_at) / RFU TMPRSS4 (11747572_a_at) / Fold change /veh TMPRSS4 (11747572_a_at) / RFU HAMP (11756126_x_at) / Fold change /veh HAMP (11756126_x_at) / RFU RNFT2 (11725882_a_at) / Fold change /veh RNFT2 (11725882_a_at) / RFU NR4A2 (11747474_a_at) / Fold change /veh NR4A2 (11747474_a_at) / RFU ABCC12 (11746883_a_at) / Fold change /veh ABCC12 (11746883_a_at) / RFU TMEM136 (11760407_x_at) / Fold change /veh TMEM136 (11760407_x_at) / RFU CLDN22 /// WWC2 (11732394_at) / Fold change /veh CLDN22 /// WWC2 (11732394_at) / RFU HLA-DPB1 (11760878_x_at) / Fold change /veh HLA-DPB1 (11760878_x_at) / RFU SPINT1 (11716480_a_at) / Fold change /veh SPINT1 (11716480_a_at) / RFU GAP43 (11754022_s_at) / Fold change /veh GAP43 (11754022_s_at) / RFU A4GNT (11735810_at) / Fold change /veh A4GNT (11735810_at) / RFU PRB3 (11715151_x_at) / Fold change /veh PRB3 (11715151_x_at) / RFU TUBB4B (11761932_at) / Fold change /veh TUBB4B (11761932_at) / RFU CAPN14 (11732068_a_at) / Fold change /veh CAPN14 (11732068_a_at) / RFU TMCC2 (11721928_a_at) / Fold change /veh TMCC2 (11721928_a_at) / RFU IRGQ (11745062_a_at) / Fold change /veh IRGQ (11745062_a_at) / RFU FAM174B (11720279_a_at) / Fold change /veh FAM174B (11720279_a_at) / RFU TMPRSS4 (11748680_a_at) / Fold change /veh TMPRSS4 (11748680_a_at) / RFU FAM212B (11763350_a_at) / Fold change /veh FAM212B (11763350_a_at) / RFU PLEKHG5 (11743358_a_at) / Fold change /veh PLEKHG5 (11743358_a_at) / RFU ZSCAN30 (11745921_a_at) / Fold change /veh ZSCAN30 (11745921_a_at) / RFU CMKLR1 (11741424_a_at) / Fold change /veh CMKLR1 (11741424_a_at) / RFU LOC101060620 /// MAPK8IP1 (11723275_at) / Fold change /veh LOC101060620 /// MAPK8IP1 (11723275_at) / RFU SPTSSB (11747773_x_at) / Fold change /veh SPTSSB (11747773_x_at) / RFU PRSS12 (11739890_at) / Fold change /veh PRSS12 (11739890_at) / RFU BIN1 (11741810_x_at) / Fold change /veh BIN1 (11741810_x_at) / RFU WNT11 (11732464_a_at) / Fold change /veh WNT11 (11732464_a_at) / RFU C10orf10 (11716521_a_at) / Fold change /veh C10orf10 (11716521_a_at) / RFU C5orf56 (11738089_at) / Fold change /veh C5orf56 (11738089_at) / RFU CYB561 (11721691_x_at) / Fold change /veh CYB561 (11721691_x_at) / RFU ANKRD19P (11752326_a_at) / Fold change /veh ANKRD19P (11752326_a_at) / RFU OR2T12 /// OR2T33 /// OR2T8 (11738714_s_at) / Fold change /veh OR2T12 /// OR2T33 /// OR2T8 (11738714_s_at) / RFU VCAN (11748164_a_at) / Fold change /veh VCAN (11748164_a_at) / RFU JSRP1 (11732532_at) / Fold change /veh JSRP1 (11732532_at) / RFU KRTAP10-11 (11738290_x_at) / Fold change /veh KRTAP10-11 (11738290_x_at) / RFU MYO3A (11730013_a_at) / Fold change /veh MYO3A (11730013_a_at) / RFU EBF3 (11725865_a_at) / Fold change /veh EBF3 (11725865_a_at) / RFU CAMK2N1 (11719241_x_at) / Fold change /veh CAMK2N1 (11719241_x_at) / RFU C5orf56 (11738088_a_at) / Fold change /veh C5orf56 (11738088_a_at) / RFU OLFML3 (11715873_a_at) / Fold change /veh OLFML3 (11715873_a_at) / RFU LOC100653217 /// NTM (11731650_a_at) / Fold change /veh LOC100653217 /// NTM (11731650_a_at) / RFU MAPK11 (11762145_a_at) / Fold change /veh MAPK11 (11762145_a_at) / RFU FIZ1 (11724087_x_at) / Fold change /veh FIZ1 (11724087_x_at) / RFU OASL (11726364_x_at) / Fold change /veh OASL (11726364_x_at) / RFU SOX15 (11748057_x_at) / Fold change /veh SOX15 (11748057_x_at) / RFU CD79A (11719716_a_at) / Fold change /veh CD79A (11719716_a_at) / RFU HIST1H1D (11736915_at) / Fold change /veh HIST1H1D (11736915_at) / RFU CASKIN2 (11723855_a_at) / Fold change /veh CASKIN2 (11723855_a_at) / RFU LOC730098 (11760151_x_at) / Fold change /veh LOC730098 (11760151_x_at) / RFU OR4N2 (11742367_at) / Fold change /veh OR4N2 (11742367_at) / RFU PRRT2 (11749266_a_at) / Fold change /veh PRRT2 (11749266_a_at) / RFU SNX32 (11753110_a_at) / Fold change /veh SNX32 (11753110_a_at) / RFU CDHR5 (11726645_a_at) / Fold change /veh CDHR5 (11726645_a_at) / RFU RCAN1 (11760418_a_at) / Fold change /veh RCAN1 (11760418_a_at) / RFU FAM167A (11723789_a_at) / Fold change /veh FAM167A (11723789_a_at) / RFU FAM26E (11764081_at) / Fold change /veh FAM26E (11764081_at) / RFU ISYNA1 (11749810_s_at) / Fold change /veh ISYNA1 (11749810_s_at) / RFU ACY1 (11761880_at) / Fold change /veh ACY1 (11761880_at) / RFU 11764098_at / Fold change /veh 11764098_at / RFU SAMD14 (11745864_x_at) / Fold change /veh SAMD14 (11745864_x_at) / RFU NPB (11741838_a_at) / Fold change /veh NPB (11741838_a_at) / RFU TMPRSS6 (11731388_a_at) / Fold change /veh TMPRSS6 (11731388_a_at) / RFU KRTAP10-2 (11738614_at) / Fold change /veh KRTAP10-2 (11738614_at) / RFU ARHGAP8 /// PRR5-ARHGAP8 (11727945_x_at) / Fold change /veh ARHGAP8 /// PRR5-ARHGAP8 (11727945_x_at) / RFU KRTAP5-7 /// NADSYN1 (11734609_at) / Fold change /veh KRTAP5-7 /// NADSYN1 (11734609_at) / RFU RASL12 (11751679_a_at) / Fold change /veh RASL12 (11751679_a_at) / RFU CDKN2B (11736163_a_at) / Fold change /veh CDKN2B (11736163_a_at) / RFU PRF1 (11729649_at) / Fold change /veh PRF1 (11729649_at) / RFU, ZNF638 /// ZNF638-IT1 / Fold change vs veh, ZNF638 /// ZNF638-IT1 / RFU, PANK3 / Fold change vs veh, PANK3 / RFU, SH3YL1 / Fold change vs veh, SH3YL1 / RFU, ZEB2 / Fold change vs veh, ZEB2 / RFU, NRIP1 / Fold change vs veh, NRIP1 / RFU, PTTG1IP / Fold change vs veh, PTTG1IP / RFU, CAPN2 / Fold change vs veh, CAPN2 / RFU, MED14 / Fold change vs veh, MED14 / RFU, SNORA58 / Fold change vs veh, SNORA58 / RFU, C1orf63 / Fold change vs veh, C1orf63 / RFU, LRRFIP1 / Fold change vs veh, LRRFIP1 / RFU, NDUFAF7 / Fold change vs veh, NDUFAF7 / RFU, SLC12A2 / Fold change vs veh, SLC12A2 / RFU, IBTK / Fold change vs veh, IBTK / RFU, ESF1 / Fold change vs veh, ESF1 / Fold change vs veh, TMEM50B / RFU, TAOK1 / Fold change vs veh, TAOK1 / RFU, ACBD3 / Fold change vs veh, ACBD3 / RFU, TMA16 / Fold change vs veh, TMA16 / RFU, RWDD3 / Fold change vs veh, RWDD3 / RFU, BCAT1 / Fold change vs veh, BCAT1 / RFU, EDEM3 / Fold change vs veh, EDEM3 / RFU, TMEM33 / Fold change vs veh, TMEM33 / RFU, WDR75 / Fold change vs veh, WDR75 / RFU, AHCTF1 / Fold change vs veh, AHCTF1 / RFU, TFRC / Fold change vs veh, TFRC / RFU, ZDHHC17 / Fold change vs veh, ZDHHC17 / RFU, NOM1 / Fold change vs veh, NOM1 / RFU, ARL8B / Fold change vs veh, ARL8B / RFU, ZBTB11 / Fold change vs veh, ZBTB11 / RFU, TAMM41 / Fold change vs veh, TAMM41 / RFU, KIAA1704 /// LOC100996395 / Fold change vs veh, KIAA1704 /// LOC100996395 / RFU, ING1 / Fold change vs veh, ING1 / RFU, TRMT61B / Fold change vs veh, TRMT61B / RFU, FUBP3 / Fold change vs veh, FUBP3 / RFU, TP53 / Fold change vs veh, TP53 / RFU, TNKS2 / Fold change vs veh, TNKS2 / RFU, ZFP14 / Fold change vs veh, ZFP14 / RFU, ACTR2 / Fold change vs veh, ACTR2 / RFU, PPP3R1 / Fold change vs veh, PPP3R1 / RFU, PIK3R1 / Fold change vs veh, PIK3R1 / RFU, HNRNPA1 / Fold change vs veh, HNRNPA1 / RFU, RNF170 / Fold change vs veh, RNF170 / RFU, ZNF28 / Fold change vs veh, ZNF28 / RFU, RNGTT / Fold change vs veh, RNGTT / RFU, OGT / Fold change vs veh, OGT / RFU, BRD1 / Fold change vs veh, BRD1 / RFU, MARS / Fold change vs veh, MARS / RFU, ZNF655 / Fold change vs veh, ZNF655 / RFU, FAHD1 / Fold change vs veh, FAHD1 / RFU, BDP1 / Fold change vs veh, BDP1 / RFU, LRRCC1 / Fold change vs veh, LRRCC1 / RFU, ARID1A / Fold change vs veh, ARID1A / RFU, ZNF146 / Fold change vs veh, ZNF146 / RFU, ZNF330 / Fold change vs veh, ZNF330 / RFU, GPN3 / Fold change vs veh, GPN3 / RFU, C9orf123 / Fold change vs veh, C9orf123 / RFU, N4BP2L2 / Fold change vs veh, N4BP2L2 / RFU, ARFIP1 / Fold change vs veh, ARFIP1 / RFU, FAM179B / Fold change vs veh, FAM179B / RFU, BCL10 / Fold change vs veh, BCL10 / RFU, UHRF1BP1L / Fold change vs veh, UHRF1BP1L / RFU, BET1 / Fold change vs veh, BET1 / RFU, CNOT2 / Fold change vs veh, CNOT2 / RFU, ZNF268 / Fold change vs veh, ZNF268 / Fold change vs veh, ZNF507 / RFU, DGCR2 / Fold change vs veh, DGCR2 / RFU, WDSUB1 / Fold change vs veh, WDSUB1 / Fold change vs veh, HSP90B1 /// MIR3652 / RFU, ADSS / Fold change vs veh, ADSS / RFU, GK / Fold change vs veh, GK / RFU, ZNF148 / Fold change vs veh, ZNF148 / RFU, TAF9 / Fold change vs veh, TAF9 / RFU, SLC1A5 / Fold change vs veh, SLC1A5 / RFU, SLMO2 / Fold change vs veh, SLMO2 / RFU, ABCC4 / Fold change vs veh, ABCC4 / RFU, LOC101060439 /// RAP1B / Fold change vs veh, LOC101060439 /// RAP1B / RFU, RFX7 / Fold change vs veh, RFX7 / RFU, GTPBP10 / Fold change vs veh, GTPBP10 / RFU, CNEP1R1 / Fold change vs veh, CNEP1R1 / RFU, BIVM-ERCC5 /// ERCC5 / Fold change vs veh, BIVM-ERCC5 /// ERCC5 / RFU, ILF3 / Fold change vs veh, ILF3 / RFU 11762660_at / Fold change /veh 11762660_at / RFU VCAN (11757783_s_at) / Fold change /veh VCAN (11757783_s_at) / RFU DDX43 (11728927_at) / Fold change /veh DDX43 (11728927_at) / RFU KRT8 (11758188_x_at) / Fold change /veh KRT8 (11758188_x_at) / RFU NKD1 (11759106_at) / Fold change /veh NKD1 (11759106_at) / RFU SRD5A1 (11742802_a_at) / Fold change /veh SRD5A1 (11742802_a_at) / RFU TPSAB1 /// TPSB2 (11721975_s_at) / Fold change /veh TPSAB1 /// TPSB2 (11721975_s_at) / RFU GSTM3 (11746129_a_at) / Fold change /veh GSTM3 (11746129_a_at) / RFU IL23R (11737362_x_at) / Fold change /veh IL23R (11737362_x_at) / RFU TMEM51 (11727254_a_at) / Fold change /veh TMEM51 (11727254_a_at) / RFU PIWIL2 (11732686_x_at) / Fold change /veh PIWIL2 (11732686_x_at) / RFU ORM1 (11744905_x_at) / Fold change /veh ORM1 (11744905_x_at) / RFU CCDC152 (11743942_at) / Fold change /veh CCDC152 (11743942_at) / RFU ECM1 (11717891_a_at) / Fold change /veh ECM1 (11717891_a_at) / RFU IL23R (11748794_a_at) / Fold change /veh IL23R (11748794_a_at) / RFU TNFAIP8L3 (11732012_x_at) / Fold change /veh TNFAIP8L3 (11732012_x_at) / RFU MBOAT4 (11741988_at) / Fold change /veh MBOAT4 (11741988_at) / RFU 11764193_at / Fold change /veh 11764193_at / RFU TMEM53 (11763286_at) / Fold change /veh TMEM53 (11763286_at) / RFU MAGEB2 (11727129_at) / Fold change /veh MAGEB2 (11727129_at) / RFU TMEM200A (11744735_a_at) / Fold change /veh TMEM200A (11744735_a_at) / RFU CCDC152 (11751479_a_at) / Fold change /veh CCDC152 (11751479_a_at) / RFU FAM211A (11726209_a_at) / Fold change /veh FAM211A (11726209_a_at) / RFU RGS16 (11746705_a_at) / Fold change /veh RGS16 (11746705_a_at) / RFU VCAN (11755009_s_at) / Fold change /veh VCAN (11755009_s_at) / RFU RHOB (11743442_s_at) / Fold change /veh RHOB (11743442_s_at) / RFU RGS16 (11720943_a_at) / Fold change /veh RGS16 (11720943_a_at) / RFU RGS16 (11720944_at) / Fold change /veh RGS16 (11720944_at) / RFU, VPS4B / Fold change vs veh, VPS4B / RFU, CREB1 / Fold change vs veh, CREB1 / RFU, DNAJC13 / Fold change vs veh, DNAJC13 / RFU, GNAQ / Fold change vs veh, GNAQ / RFU, CDK5R1 / Fold change vs veh, CDK5R1 / RFU, ZRANB3 / Fold change vs veh, ZRANB3 / RFU, CUL4A / Fold change vs veh, CUL4A / RFU, CCNY / Fold change vs veh, CCNY / RFU, UFL1 / Fold change vs veh, UFL1 / RFU, COG3 / Fold change vs veh, COG3 / RFU, DIAPH2 / Fold change vs veh, DIAPH2 / RFU, SKA2 / Fold change vs veh, SKA2 / RFU, AFF3 / Fold change vs veh, AFF3 / RFU, LMF1 / Fold change vs veh, LMF1 / RFU, IPO11 / Fold change vs veh, IPO11 / RFU, DFFB / Fold change vs veh, DFFB / RFU, FOXP1 / Fold change vs veh, FOXP1 / RFU, CARD8 / Fold change vs veh, CARD8 / RFU, STRN3 / Fold change vs veh, STRN3 / RFU, ADK / Fold change vs veh, ADK / RFU, RASSF2 / Fold change vs veh, RASSF2 / RFU, WIPF1 / Fold change vs veh, WIPF1 / RFU, LARP1B / Fold change vs veh, LARP1B / RFU, RASA1 / Fold change vs veh, RASA1 / RFU, RB1 / Fold change vs veh, RB1 / RFU, PPFIA1 / Fold change vs veh, PPFIA1 / RFU, MAT2A / Fold change vs veh, MAT2A / RFU, CCT5 / Fold change vs veh, CCT5 / RFU, WDR92 / Fold change vs veh, WDR92 / RFU, CUX1 / Fold change vs veh, CUX1 / RFU, TTC7A / Fold change vs veh, TTC7A / RFU, TMEM135 / Fold change vs veh, TMEM135 / RFU, DEPTOR / Fold change vs veh, DEPTOR / RFU, CPM / Fold change vs veh, CPM / RFU, DNAJB6 / Fold change vs veh, DNAJB6 / RFU, CACNA2D3 / Fold change vs veh, CACNA2D3 / RFU, DTX4 / Fold change vs veh, DTX4 / RFU, TFCP2 / Fold change vs veh, TFCP2 / RFU, GMCL1 /// GMCL1P1 / Fold change vs veh, GMCL1 /// GMCL1P1 / RFU, AEBP2 / Fold change vs veh, AEBP2 / RFU, SNHG1 /// SNORD22 /// SNORD25 /// SNORD26 /// SNORD27 /// SNORD28 /// SNORD29 /// SNORD31 / Fold change vs veh, SNHG1 /// SNORD22 /// SNORD25 /// SNORD26 /// SNORD27 /// SNORD28 /// SNORD29 /// SNORD31 / Fold change (Aza/veh), C12orf56 (ProbeSet 11735607_a_at) / Fold change (ACY-1035/veh), C12orf56 (ProbeSet 11735607_a_at) / Fold change (Aza/veh), FGFR1OP (ProbeSet 11751329_s_at) / Fold change (ACY-1035/veh), FGFR1OP (ProbeSet 11751329_s_at) / Fold change (Aza/veh), VPS36 (ProbeSet 11739960_a_at) / Fold change (ACY-1035/veh), VPS36 (ProbeSet 11739960_a_at) / RFU SYPL1 (11715823_x_at) / Fold change /veh SYPL1 (11715823_x_at) / RFU IGFBP7 (11715501_s_at) / Fold change /veh IGFBP7 (11715501_s_at) / RFU REEP3 (11722064_at) / Fold change /veh REEP3 (11722064_at) / RFU IGLL1 (11728026_x_at) / Fold change /veh IGLL1 (11728026_x_at): dose or concentration left out as unconfirmed
Details: MV-4-11 cells, 48 hours

Nc1ncn([C@@H]2O[C@H](CO)[C@@H](O)[C@H]2O)c(=O)n1 [azacitidine]
Fold change /veh CAPN14 (11732068_a_at): 1.07
